Data published in patent US20170190671A1, “BIS(ARYL)CATECHOL DERIVATIVES AS HERBICIDES” (E I DU PONT DE NEMOURS AND COMPANY, priority 2014, published 2017).

What was measured:
Format in all cases: in vivo
[1] = tested on: pigweed (Amaranthus retroflexus); experiment: Test C postemergence; settings: Amaranthus retroflexus, post-emergence, 336 h, Postemergence, scale 0 to 100, read-out: Plant response rating, Pigweed
Outline: (§1)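 Seeds sown in a loam soil and sand blend were treated preemergence; plants in peat-moss/vermiculite medium were sprayed at the 1- to 4-leaf stage (2-18 cm). Chemicals were in a non-phytotoxic surfactant-containing solvent. After 13 to 15 days in a greenhouse, injury was visually rated against controls on a 0-100 scale.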

kochia (Kochia scoparia) = experiment: Test C postemergence; settings: Bassia scoparia, post-emergence, Postemergence, scale 0 to 100, read-out: Plant response rating, Kochia
Outline: as §1

[2] = tested on: chickweed (common chickweed, Stellaria media); experiment: Test C postemergence; settings: Stellaria media, post-emergence, Postemergence, scale 0 to 100, read-out: Plant response rating, Chickweed
Outline: as §1

[3] = tested on: waterhemp (common waterhemp, Amaranthus rudis); experiment: Test C postemergence; settings: Amaranthus tuberculatus, post-emergence, Postemergence, scale 0 to 100, read-out: Plant response rating, Waterhemp
Outline: as §1

[4] = tested on: galium (catchweed bedstraw, Galium aparine); experiment: Test C postemergence; settings: Galium, post-emergence, 336 h, Postemergence, scale 0 to 100, read-out: Plant response rating, Galium
Outline: as §1

wild oat (Avena fatua) = experiment: Test C postemergence; settings: Avena fatua, post-emergence, Postemergence, scale 0 to 100, read-out: Plant response rating, Oat, Wild
Outline: as §1

[5] = tested on: yellow nutsedge (Cyperus esculentus); experiment: Test C postemergence; settings: Cyperus, post-emergence, 336 h, Postemergence, scale 0 to 100, read-out: Plant response rating, Nutsedge, Yellow
Outline: as §1

[6] = tested on: johnsongrass (Sorghum halepense); experiment: Test C preemergence; settings: Sorghum halepense, pre-emergence, 336 h, scale 0 to 100, read-out: Plant response rating, Johnsongrass
Outline: as §1

[7] = tested on: barnyardgrass (Echinochloa crus-galli); experiment: Test C preemergence; settings: Echinochloa crus-galli, pre-emergence, read-out: Plant response rating, Barnyardgrass
Outline: as §1

[8] = tested on: pigweed (Amaranthus retroflexus); experiment: Test C preemergence; settings: Amaranthus retroflexus, pre-emergence, 336 h, scale 0 to 100, read-out: Plant response rating, Pigweed
Outline: as §1

corn (Zea mays) = experiment: Test C preemergence; settings: Zea mays, pre-emergence, 336 h, scale 0 to 100
Outline: as §1

[9] = tested on: giant foxtail (Setaria faberii); experiment: Test C preemergence; settings: Setaria faberi, pre-emergence, 336 h, scale 0 to 100, read-out: Plant response rating, Foxtail, Giant
Outline: as §1

[10] = tested on: velvetleaf (Abutilon theophrasti); experiment: Test C preemergence; settings: Abutilon theophrasti, pre-emergence, scale 0 to 100, read-out: Plant response rating, Velvetleaf
Outline: as §1

[11] = tested on: blackgrass (Alopecurus myosuroides); experiment: Test C preemergence; settings: Alopecurus myosuroides, pre-emergence, 336 h, scale 0 to 100, read-out: Plant response rating, Blackgrass
Outline: as §1

[12] = tested on: waterhemp (common waterhemp, Amaranthus rudis); experiment: Test C preemergence; settings: Amaranthus tuberculatus, pre-emergence, scale 0 to 100, read-out: Plant response rating, Waterhemp
Outline: as §1

[13] = tested on: winter wheat (Triticum aestivum); experiment: Test C preemergence; settings: Triticum aestivum, pre-emergence, 336 h, scale 0 to 100, read-out: Plant response rating, Wheat
Outline: as §1

[14] = tested on: large (Lg) crabgrass (Digitaria sanguinalis); experiment: Test C preemergence; settings: Digitaria sanguinalis, pre-emergence, 336 h, scale 0 to 100, read-out: Plant response rating, Crabgrass, Large
Outline: as §1

[15] = tested on: ragweed (common ragweed, Ambrosia elatior); experiment: Test C preemergence; settings: Ambrosia artemisiifolia, pre-emergence, 336 h, scale 0 to 100, read-out: Plant response rating, Ragweed
Outline: as §1

soybean (Glycine max) = experiment: Test C preemergence; settings: Glycine max, pre-emergence, scale 0 to 100, read-out: Plant response rating, Soybean
Outline: as §1

[16] = tested on: morningglory (Ipomoea coccinea); experiment: Test C preemergence; settings: Ipomoea, pre-emergence, 336 h, scale 0 to 100, read-out: Plant response rating, Morningglory
Outline: as §1

[17] = tested on: Italian ryegrass (Lolium multiflorum); experiment: Test C preemergence; settings: Lolium multiflorum, pre-emergence, 336 h, scale 0 to 100, read-out: Plant response rating, Ryegrass, Italian
Outline: as §1

[18] = tested on: oilseed rape (Brassica napus); experiment: Test C preemergence; settings: Brassica napus, pre-emergence, scale 0 to 100, read-out: Plant response rating, Oilseed Rape
Outline: as §1

Compound: Fc1cccc(Oc2ncc(C(F)(F)F)cn2)c1Oc1ncc(Cl)cn1 [Compound 42, 5-chloro-2-[2-fluoro-6-[[5-(trifluoromethyl)-2-pyrimidinyl]oxy]phenoxy]pyrimidine]
- pest or weed control at 31 g/ha ([1]; 31 g ai/ha): 90%
- pest or weed control at 62 g/ha ([1]; 62 g ai/ha): 98%
- pest or weed control at 125 g/ha ([1]; 125 g ai/ha): 98%
- pest or weed control at 16 g/ha (kochia (Kochia scoparia); 16 g ai/ha): 90%
- pest or weed control at 31 g/ha (kochia (Kochia scoparia); 31 g ai/ha): 95%
- pest or weed control at 62 g/ha (kochia (Kochia scoparia); 62 g ai/ha): 100%
- pest or weed control at 125 g/ha (kochia (Kochia scoparia); 125 g ai/ha): 100%
- pest or weed control at 16 g/ha ([2]; 16 g ai/ha): 20%
- pest or weed control at 31 g/ha ([2]; 31 g ai/ha): 90%
- pest or weed control at 62 g/ha ([2]; 62 g ai/ha): 95%
- pest or weed control at 125 g/ha ([2]; 125 g ai/ha): 95%
- pest or weed control at 31 g/ha ([3]; 31 g ai/ha): 90%
- pest or weed control at 62 g/ha ([3]; 62 g ai/ha): 95%
- pest or weed control at 125 g/ha ([3]; 125 g ai/ha): 95%
- pest or weed control at 16 g/ha ([4]; 16 g ai/ha): 75%
- pest or weed control at 31 g/ha ([4]; 31 g ai/ha): 98%
- pest or weed control at 62 g/ha ([4]; 62 g ai/ha): 100%
- pest or weed control at 125 g/ha ([4]; 125 g ai/ha): 100%
- pest or weed control at 31 g/ha (wild oat (Avena fatua); 31 g ai/ha): 10%
- pest or weed control at 62 g/ha (wild oat (Avena fatua); 62 g ai/ha): 40%
- pest or weed control at 125 g/ha (wild oat (Avena fatua); 125 g ai/ha): 60%
- pest or weed control at 31 g/ha ([5]; 31 g ai/ha): 0%
- pest or weed control at 62 g/ha ([5]; 62 g ai/ha): 5%
- pest or weed control at 125 g/ha ([5]; 125 g ai/ha): 5%
- pest or weed control at 31 g/ha ([6]; 31 g ai/ha, preemergence): 70%
- pest or weed control at 62 g/ha ([6]; 62 g ai/ha, preemergence): 100%
- pest or weed control at 125 g/ha ([6]; 125 g ai/ha, preemergence): 100%
- pest or weed control at 16 g/ha ([6]; Preemergence, 16 g ai/ha): 30%
- pest or weed control at 31 g/ha ([7]; 31 g ai/ha, preemergence, scale 0 to 100): 90%
- pest or weed control at 62 g/ha ([7]; 62 g ai/ha, preemergence, scale 0 to 100): 100%
- pest or weed control at 125 g/ha ([7]; 125 g ai/ha, preemergence, scale 0 to 100): 100%
- pest or weed control at 16 g/ha ([7]; Preemergence, 16 g ai/ha, scale 0 to 100 (0 no effect, 100 complete control)): 50%
- pest or weed control at 31 g/ha ([8]; 31 g ai/ha, preemergence): 100%
- pest or weed control at 62 g/ha ([8]; 62 g ai/ha, preemergence): 100%
- pest or weed control at 125 g/ha ([8]; 125 g ai/ha, preemergence): 100%
- pest or weed control at 16 g/ha ([8]; Preemergence, 16 g ai/ha): 100%
- Corn plant response rating (crop injury, 0 = no effect, 100 = complete kill) at 31 g/ha (corn (Zea mays); 31 g ai/ha, preemergence): 5%
- Corn plant response rating (crop injury, 0 = no effect, 100 = complete kill) at 62 g/ha (corn (Zea mays); 62 g ai/ha, preemergence): 80%
- Corn plant response rating (crop injury, 0 = no effect, 100 = complete kill) at 125 g/ha (corn (Zea mays); 125 g ai/ha, preemergence): 85%
- Corn plant response rating (crop injury, 0 = no effect, 100 = complete kill) at 16 g/ha (corn (Zea mays); Preemergence, 16 g ai/ha): 0%
- pest or weed control at 31 g/ha ([9]; 31 g ai/ha, preemergence): 100%
- pest or weed control at 62 g/ha ([9]; 62 g ai/ha, preemergence): 100%
- pest or weed control at 125 g/ha ([9]; 125 g ai/ha, preemergence): 100%
- pest or weed control at 16 g/ha ([9]; Preemergence, 16 g ai/ha): 85%
- pest or weed control at 31 g/ha ([10]; 31 g ai/ha, preemergence): 100%
- pest or weed control at 62 g/ha ([10]; 62 g ai/ha, preemergence): 100%
- pest or weed control at 125 g/ha ([10]; 125 g ai/ha, preemergence): 100%
- pest or weed control at 16 g/ha ([10]; Preemergence, 16 g ai/ha): 100%
- pest or weed control at 31 g/ha ([11]; 31 g ai/ha, preemergence): 65%
- pest or weed control at 62 g/ha ([11]; 62 g ai/ha, preemergence): 90%
- pest or weed control at 125 g/ha ([11]; 125 g ai/ha, preemergence): 90%
- pest or weed control at 16 g/ha ([11]; Preemergence, 16 g ai/ha): 35%
- pest or weed control at 31 g/ha ([12]; 31 g ai/ha, preemergence): 100%
- pest or weed control at 62 g/ha ([12]; 62 g ai/ha, preemergence): 100%
- pest or weed control at 125 g/ha ([12]; 125 g ai/ha, preemergence): 100%
- pest or weed control at 16 g/ha ([12]; Preemergence, 16 g ai/ha): 95%
- plant injury at 31 g/ha ([13]; 31 g ai/ha, preemergence): 30%
- plant injury at 62 g/ha ([13]; 62 g ai/ha, preemergence): 45%
- plant injury at 125 g/ha ([13]; 125 g ai/ha, preemergence): 90%
- plant injury at 16 g/ha ([13]; Preemergence, 16 g ai/ha): 0%
- pest or weed control at 31 g/ha ([14]; 31 g ai/ha, preemergence): 100%
- pest or weed control at 62 g/ha ([14]; 62 g ai/ha, preemergence): 100%
- pest or weed control at 125 g/ha ([14]; 125 g ai/ha, preemergence): 100%
- pest or weed control at 16 g/ha ([14]; Preemergence, 16 g ai/ha): 100%
- pest or weed control at 31 g/ha ([15]; 31 g ai/ha, preemergence): 55%
- pest or weed control at 62 g/ha ([15]; 62 g ai/ha, preemergence): 98%
- pest or weed control at 125 g/ha ([15]; 125 g ai/ha, preemergence): 90%
- pest or weed control at 16 g/ha ([15]; Preemergence, 16 g ai/ha): 30%
- plant injury at 31 g/ha (soybean (Glycine max); 31 g ai/ha, preemergence): 50%
- plant injury at 62 g/ha (soybean (Glycine max); 62 g ai/ha, preemergence): 80%
- plant injury at 125 g/ha (soybean (Glycine max); 125 g ai/ha, preemergence): 95%
- plant injury at 16 g/ha (soybean (Glycine max); Preemergence, 16 g ai/ha): 25%
- pest or weed control at 31 g/ha ([16]; 31 g ai/ha, preemergence): 85%
- pest or weed control at 62 g/ha ([16]; 62 g ai/ha, preemergence): 100%
- pest or weed control at 125 g/ha ([16]; 125 g ai/ha, preemergence): 100%
- pest or weed control at 16 g/ha ([16]; Preemergence, 16 g ai/ha): 60%
- pest or weed control at 31 g/ha ([17]; 31 g ai/ha, preemergence): 70%
- pest or weed control at 62 g/ha ([17]; 62 g ai/ha, preemergence): 80%
- pest or weed control at 125 g/ha ([17]; 125 g ai/ha, preemergence): 95%
- pest or weed control at 16 g/ha ([17]; Preemergence, 16 g ai/ha): 5%
- plant injury at 31 g/ha ([18]; 31 g ai/ha, preemergence): 100%
- plant injury at 62 g/ha ([18]; 62 g ai/ha, preemergence): 100%
- plant injury at 125 g/ha ([18]; 125 g ai/ha, preemergence): 100%
- plant injury at 16 g/ha ([18]; Preemergence, 16 g ai/ha): 98%
